pIC50: −log10 of the molar value.

In data set [1] the test system is estrogen receptor negative epithelial breast carcinoma line (MDA-MB-435). The data set can be described thus: MDA-MB-435 cell-based antiproliferative (MTT) assay. Conditions: Homo sapiens, MDA-MB-435, 120 h, 2000 cells per well, 5 days post addition of test compound, read-out: Antiproliferative Activity of MDA-MB435 (breast) Assay - IC50 Range. The protocol:
(§1) The estrogen receptor negative epithelial breast carcinoma line (MDA-MB-435) was purchased from American Type Cell Culture Collection (ATCC; Rockville, Md.) and was grown in the medium recommended by ATCC. For analysis of the effect of the test compounds on growth of these cells, the cells were plated at 2000 cells per well in a 96-well tissue culture plate, and were incubated overnight at 37° C. with 5% CO2. The next day, the test compounds were dissolved in 100% dimethyl sulfoxide (DMSO) to yield a 10 mM stock solution. Each compound was diluted with sterile medium to 1 mM in a sufficient quantity to yield a final concentration of 120 μM. The compounds were then serially diluted in medium with 1.2% DMSO. One-fourth final volume of the diluted compounds was transferred to 96 well plates. Test compounds were assayed in duplicate. DMSO was added to a row of “control cells” such that the final concentration of DMSO in each well was 0.3%. Wells to which no cells were added served as the “blank.” Wells to which no inhibitor was added served as “no inhibitor control”. The plates were returned to the incubator, and 5 days post addition of test compound, were analyzed as described below.
(§2) 3-(4,5-Dimethylthiazole-2-yl)-2,5-diphenyl-2H-tetrazolium bromide (thiazolyl blue; MTT) was added to each well to yield a final concentration of 1 mg/mL. The plates were then incubated at 37° C. for 3 hours. The plates were centrifuged at 1000 rpm for 5 minutes prior to aspiration of the MTT-containing medium. The MTT-containing medium was then removed and 100 μL 100% ethanol was added to each well to dissolve the resulting formazan metabolite. To ensure complete dissolution, plates were shaken for 15 minutes at room temperature. Absorbencies were read in a microtiter plate reader (Molecular Dynamics) at a wavelength of 570 nm with a 650 nm reference. Percent inhibition was calculated by subtracting the absorbance of the blank (no cell) wells from all wells, then subtracting the division of the average absorbance of each test duplicate by the average of the controls from 1.00. Inhibitory concentrations (IC50) were determined from the linear regression of a plot of the logarithm of the concentration versus the percent inhibition.

Data set [2] concerns the target T1, Recombinant active human Cyclin E/CDK2 complexes (Homo sapiens, UniProt P24941).
T1 construct: made in house; host or cells: insect cells
The experiment in a line: CDK2 FlashPlate Assay (inhibition of Rb phosphorylation). The class given is biochemical. Conditions: Cyclin E/CDK2, Rb substrate, 33P-ATP, 25 minutes at room temperature; read-out: Inhibition of Cdk2 - IC50 Range. The method, then:
To determine inhibition of CDK2 activity, purified recombinant retinoblastoma (Rb) protein was coated on 96 well FlashPlates (New England Nuclear, Boston, Mass.). Rb is a natural substrate for phosphorylation by CDK2 (Herwig and Strauss Eurr. J. Biochem., Vol. 246 (1997) pp. 581-601 and references therein). Recombinant active human Cyclin E/CDK2 complexes were partially purified from extracts of insect cells. The active Cyclin E/CDK2 was added to the Rb-coated FlashPlates along with ^33P-ATP and dilutions of test compounds. Plates were incubated for 25 minutes at room temperature with shaking, then washed and counted in the Topcount scintillation counter (Packard Instrument Co., Downers Grove, Ill.). Dilutions of test compounds were tested in duplicate in each assay. The percent inhibition of Rb phosphorylation, which is a measure of the inhibition of CDK2 activity, was determined according to the following formula: [formula] where “test compound” refers to the average counts per minute of the test duplicates, “nonspecific” refers to the average counts per minute when no Cyclin E/CDK2 was added, and “total” refers to the average counts per minute when no compound was added.

Data set [3] deals with colon adenocarcinoma line SW480. The data set can be described thus: SW480 cell-based antiproliferative (MTT) assay. Particulars: Homo sapiens, SW480, 144 h, 1000 cells per well, 6 days post addition of test compound, read-out: Antiproliferative Activity SW480 (colon) Assay - IC50 Range. The method, then:
as §1, §2
(§3) The colon adenocarcinoma line SW480 and the colon carcinoma line HCT-116 also were obtained from the ATCC and were tested according to the same protocol provided above for MDA-MB435 cell based assay with the following modifications. Cell line SW480 was plated at 1000 cells per well and analyzed at 6 days post addition of the test compound. Cell line HCT-116 was plated at 1000 cells per well and analyzed at 4 days post addition of test compound.

Data set [4] concerns colon carcinoma line HCT-116. The experiment in a line: HCT-116 cell-based antiproliferative (MTT) assay. Conditions: Homo sapiens, HCT-116, 96 h, 1000 cells per well, 4 days post addition of test compound, read-out: Antiproliferative Activity HCT 116 (colon) Assay - IC50 Range. The protocol: as §1, §2, §3

As to `NC(=O)c1cnc2c(cc([N+](=O)[O-])c3nncc32)c(-c2ccccc2Cl)n1` [Compound C10, 5-(2-chlorophenyl)-7-nitro-pyrazolo[3,4][1,4]benzodiazepine-3-carboxamide], the melting point (in general, the temperature of the solid-liquid transition) was > 340 °C.
As to `O=[N+]([O-])c1ccc2c(c1)C(c1ccccc1Cl)=Nc1c(n[nH]c1CCc1ccccc1)N2` [Compound B5, 3-(2-phenylethyl)-5-(2-chlorophenyl)-7-nitro-pyrazolo[3,4][1,4]benzodiazepine], the pIC50 (in general, −log10 of the IC50, conventionally taken in molar units) in data set [1] is 4.52 to 5.00; in data set [2], 5.00 to 6.00; in data set [3], 4.52 to 5.00; in data set [4] it was 4.52 to 5.00.
Take `c1ccc(C2=Nc3c[nH]nc3Nc3ccccc32)cc1` [Compound A9, 5-phenyl-pyrazolo[3,4][1,4]benzodiazepine]: the negative logarithm of the IC50 (pIC50) in data set [2] was 5.00 to 6.00; in data set [3], 4.52 to 5.00; in data set [4], 4.52 to 5.00.
Regarding `Cc1ccccc1-c1[nH]nc2c1N=C(c1ccccc1Cl)c1cc([N+](=O)[O-])ccc1N2` [Compound D37], the pIC50 in data set [2] is 5.00 to 6.00; in data set [3], 4.52 to 5.00; in data set [4], 4.52 to 5.00.
As for `CC(C)c1[nH]nc2c1N=C(c1ccccc1Cl)c1cc([N+](=O)[O-])ccc1N2` [Compound B6], the negative logarithm of the IC50 (pIC50) in data set [1] was 6.00 to 8.00; in data set [2], 6.00 to 8.00; in data set [3], 6.00 to 8.00; in data set [4] it was 5.00 to 5.96.
With `O=[N+]([O-])c1ccc2c(c1)C(c1ccccc1Cl)=Nc1c(n[nH]c1-c1ccccc1)N2` [Compound B23, 3-phenyl-5-(2-chlorophenyl)-7-nitro-pyrazolo[3,4][1,4]benzodiazepine], the pIC50 is 6.00 to 8.00 in data set [2], 4.52 to 5.00 in data set [3] and 4.52 to 5.00 in data set [4].
On to `NC(=O)c1ccc2c(c1)C(c1ccccc1F)=Nc1c[nH]nc1N2` [Compound D50], for which the negative logarithm of the IC50 (pIC50) is 6.00 to 8.00 in data set [2], 5.00 to 5.96 in data set [3] and 5.00 to 5.96 in data set [4].
For `O=[N+]([O-])c1ccc2c(c1)C(c1ccccc1F)=Nc1c[nH]nc1N2` [Compound A13, 5-(2-fluorophenyl)-7-nitro-pyrazolo[3,4][1,4]benzodiazepine], the pIC50 is 4.52 to 5.00 in data set [1], 6.00 to 8.00 in data set [2], 5.00 to 5.96 in data set [3] and 4.52 to 5.00 in data set [4].
As to `CCc1[nH]nc2c1N=C(c1ccccc1Cl)c1cc([N+](=O)[O-])ccc1N2` [Compound B4, 3-ethyl-5-(2-chlorophenyl)-7-nitro-pyrazolo[3,4][1,4]benzodiazepine], the negative logarithm of the IC50 (pIC50) in data set [1], in data set [2], in data set [3] and in data set [4] was 6.00 to 8.00 throughout.
Take `Cc1[nH]nc2c1N=C(c1ccccc1F)c1cc(C#N)ccc1N2` [Compound B7, 3-methyl-5-(2-fluorophenyl)-pyrazolo[3,4][1,4]benzodiazepine-7-carbonitrile]: the negative-log IC50 (pIC50) in data set [1] was 6.00 to 8.00; in data set [2], 6.00 to 8.00; in data set [3], 6.00 to 8.00; in data set [4] it was 5.00 to 5.96.
Take `Clc1ccccc1C1=Nc2c[nH]nc2Nc2ccccc21` [Compound A21, 5-(2-chlorophenyl)-pyrazolo[3,4][1,4]benzodiazepine]: the figures for the pIC50 in data set [2], in data set [3] and in data set [4] were 6.00 to 8.00, 4.52 to 5.00 and 4.52 to 5.00, respectively.
Turning to `Cc1[nH]nc2c1N=C(c1ccccc1Cl)c1cc([N+](=O)[O-])ccc1N2` [Compound B3, 3-methyl-5-(2-chlorophenyl)-7-nitro-pyrazolo[3,4][1,4]benzodiazepine], the negative logarithm of the IC50 (pIC50) in data set [1], in data set [2], in data set [3] and in data set [4] was 6.00 to 8.00 each time.
In the case of `NNC(=O)c1[nH]nc2c1N=C(c1ccccc1Cl)c1cc([N+](=O)[O-])ccc1N2` [Compound C12, N-amino-5-(2-chlorophenyl)-7-nitro-pyrazolo[3,4][1,4]benzodiazepine-3-carboxamide], the negative-log IC50 (pIC50) is 6.00 to 8.00 in data set [2], 4.52 to 5.00 in data set [3] and 5.00 to 5.96 in data set [4].
The matching figures for `Fc1ccccc1C1=Nc2c[nH]nc2Nc2ccccc21` [Compound A10, 5-(2-fluorophenyl)-pyrazolo[3,4][1,4]benzodiazepine]: 5.00 to 6.00, 4.52 to 5.00 and 4.52 to 5.00.
Take `O=[N+]([O-])c1ccc2c(c1)C(c1ccccc1Cl)=Nc1c(n[nH]c1-c1cccs1)N2` [Compound D6]: the figures for the pIC50 in data set [2], in data set [3] and in data set [4] were 6.00 to 8.00, 4.52 to 5.00 and 4.52 to 5.00, respectively.
Turning to `O=[N+]([O-])c1ccc2c(c1)C(c1ccccc1Cl)=Nc1c(n[nH]c1C1CC1)N2` [Compound B25, 3-cyclopropyl-5-(2-chlorophenyl)-7-nitro-pyrazolo[3,4][1,4]benzodiazepine], the pIC50 in data set [1] was 6.00 to 8.00; in data set [2], 6.00 to 8.00; in data set [3] it was 5.00 to 5.96; in data set [4], 5.00 to 5.96.
On to `CCCc1[nH]nc2c1N=C(c1ccccc1Cl)c1cc([N+](=O)[O-])ccc1N2` [Compound B24, 3-propyl-5-(2-chlorophenyl)-7-nitro-pyrazolo[3,4][1,4]benzodiazepine], for which the negative-log IC50 (pIC50) was 4.52 to 5.00 in data set [1], 6.00 to 8.00 in data set [2], 4.52 to 5.00 in data set [3] and 4.52 to 5.00 in data set [4].
For `CCOC(=O)c1ccc2c(c1)C(c1ccccc1F)=Nc1c(n[nH]c1C)N2` [Compound B9, 3-methyl-5-(2-fluorophenyl)-7-carboethoxy-pyrazolo[3,4][1,4]benzodiazepine], the pIC50 in data set [1] is 5.00 to 5.96; in data set [2] it was 6.00 to 8.00; in data set [3], 5.00 to 5.96; in data set [4], 5.00 to 5.96.
On to `O=[N+]([O-])c1ccc2c(c1)C(c1ccccc1Cl)=Nc1c(n[nH]c1-c1ccc[nH]1)N2` [Compound B1, 3-(2-pyrrolyl)-5-(2-chlorophenyl)-7-nitro-pyrazolo[3,4][1,4]benzodiazepine], for which the figures for the pIC50 in data set [2], in data set [3] and in data set [4] were 6.00 to 8.00, 5.00 to 5.96 and 5.00 to 5.96, respectively.
Consider `Nc1ccc2c(c1)C(c1ccccc1Cl)=Nc1c[nH]nc1N2` [Compound C5, 5-(2-chlorophenyl)-7-amino-pyrazolo[3,4][1,4]benzodiazepine], for which the pIC50 in data set [1] was 4.52 to 5.00; in data set [2], 5.00 to 6.00; in data set [3] it was 4.52 to 5.00; in data set [4], 4.52 to 5.00.
For `O=[N+]([O-])c1ccc2c(c1)C(c1ccccc1Cl)=Nc1c[nH]nc1N2` [Compound A5, 5-(2-chlorophenyl)-7-nitro-pyrazolo[3,4][1,4]benzodiazepine], the negative logarithm of the IC50 (pIC50) in data set [1] was 4.52 to 5.00; in data set [2] it was 6.00 to 8.00; in data set [3], 5.00 to 5.96; in data set [4], 4.52 to 5.00.
`O=[N+]([O-])c1ccc2c(c1)C(c1ccccc1Cl)=Nc1c(n[nH]c1Cc1ccccc1)N2` [Compound B8, 3-(phenylmethyl)-5-(2-chlorophenyl)-7-nitro-pyrazolo[3,4][1,4]benzodiazepine]: the pIC50 is 4.52 to 5.00 in data set [1], 5.00 to 6.00 in data set [2], 4.52 to 5.00 in data set [3] and 4.52 to 5.00 in data set [4].

The values are drawn from patent publication US6916923B2 (Hoffmann-La Roche Inc., priority 1999, dated 2005).
